The target of this assay is PIK3CA (human) (UniProt P42336). Briefly: Inhibition of PIK3CA Kinase Activity.
Chain of PIK3CA (human) (P42336 whole entry, looked up): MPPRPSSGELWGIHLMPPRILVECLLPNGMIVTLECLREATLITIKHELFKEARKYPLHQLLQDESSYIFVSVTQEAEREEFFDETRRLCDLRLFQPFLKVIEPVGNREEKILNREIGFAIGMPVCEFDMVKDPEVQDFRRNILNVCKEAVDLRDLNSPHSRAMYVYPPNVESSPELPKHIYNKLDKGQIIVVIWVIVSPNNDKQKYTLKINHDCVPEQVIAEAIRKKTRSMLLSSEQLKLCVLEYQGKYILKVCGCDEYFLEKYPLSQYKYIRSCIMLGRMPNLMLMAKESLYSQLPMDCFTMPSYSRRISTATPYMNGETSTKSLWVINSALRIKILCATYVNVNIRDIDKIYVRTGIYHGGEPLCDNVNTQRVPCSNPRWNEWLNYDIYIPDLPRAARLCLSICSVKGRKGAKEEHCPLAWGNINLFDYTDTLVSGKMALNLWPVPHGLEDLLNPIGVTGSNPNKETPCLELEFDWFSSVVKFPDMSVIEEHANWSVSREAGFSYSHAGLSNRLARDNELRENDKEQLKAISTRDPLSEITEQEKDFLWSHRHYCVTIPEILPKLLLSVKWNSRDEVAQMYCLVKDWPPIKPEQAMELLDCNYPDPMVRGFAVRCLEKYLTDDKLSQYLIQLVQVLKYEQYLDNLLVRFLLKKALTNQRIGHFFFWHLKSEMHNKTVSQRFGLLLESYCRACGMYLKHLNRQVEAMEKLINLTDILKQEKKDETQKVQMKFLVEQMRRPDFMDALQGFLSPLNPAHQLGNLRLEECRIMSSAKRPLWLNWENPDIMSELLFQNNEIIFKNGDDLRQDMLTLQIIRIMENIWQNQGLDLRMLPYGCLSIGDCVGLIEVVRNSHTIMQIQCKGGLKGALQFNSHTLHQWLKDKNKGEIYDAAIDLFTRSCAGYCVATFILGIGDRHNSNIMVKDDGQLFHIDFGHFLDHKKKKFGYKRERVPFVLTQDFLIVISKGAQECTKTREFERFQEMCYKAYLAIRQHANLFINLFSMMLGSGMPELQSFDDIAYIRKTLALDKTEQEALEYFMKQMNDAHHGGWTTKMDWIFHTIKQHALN

Usually IC50 stands for the concentration at which inhibition is half-maximal. Low readings indicate greater potency, high ones weaker potency. `CC1CCc2c(ncnc2N2CCOc3ccc(-c4cnc5nc(N)[nH]c5c4)cc3C2)C1` (stereo unspecified) registered an IC50 of at most 10 nM.

`COC(=O)Nc1nc2ccc(-c3ccc4c(c3)CN(c3ncnc5[nH]ccc35)CCO4)cc2[nH]1` displayed a half-inhibitory concentration (IC50) of 250 to 1000 nM.

Compound `Cc1nc2ccc(-c3ccc4c(c3)CN(c3nccc5ccccc35)CCO4)cc2[nH]1` returned a half-inhibitory concentration (IC50) of 50 to 250 nM.

`CCNc1nc2ccc(-c3ccc4c(c3)CN(c3ncnc(Nc5ccc(OC)cc5)c3C)CCO4)cc2[nH]1`: the IC50 is 10 to 50 nM.

With `CN1CCN(S(=O)(=O)c2cc(-c3ccc4c(c3)CN(c3ncnc5c3CC(C)(C)CC5)CCO4)cnc2N)CC1`, the IC50 fell in the range of 50 to 250 nM.

As to `Cc1nc2cc(-c3ccc4c(c3)CN(c3nc(CN(C)C)nc(C)c3Cc3ccc(F)cc3)CCO4)ccc2[nH]1`, the IC50 is at most 10 nM.

Compound `CSc1nc2ccc(-c3ccc4c(c3)CN(c3ccnc5ccccc35)CCO4)cc2[nH]1` showed an IC50 of 10 to 50 nM.

For `Cc1c(N2CCOc3ccc(-c4cnc5nc(C6CC6)[nH]c5c4)cc3C2)ncnc1N(C)[C@@H](C)c1ccccc1`, the IC50 fell in the range of 250 to 1000 nM.

On to `CC1(C)CCc2ncnc(N3CCOc4ccc(-c5ccc6nc(NCCF)[nH]c6c5)cc4C3)c2C1`, for which the IC50 is 10 to 50 nM.

As for `CN(C)c1ncc(-c2ccc3c(c2)CN(c2ncnc4c2CC(C)(C)CC4)CCO3)cc1NS(C)(=O)=O`, the IC50 lay in the range of 10 to 50 nM.

In turn, `CC1(C)CCc2ncnc(N3CCOc4ccc(-c5cnc(C(N)=O)c(N)c5)cc4C3)c2C1` had an IC50 of 250 to 1000 nM.

With `Cc1ncnc(N2CCOc3ccc(-c4cnc(N)s4)cc3C2)c1Cc1ccc(F)cc1`, the IC50 is at most 10 nM.

Compound `CC[C@@H](C)NCc1nc2c(c(N3CCOc4ccc(-c5cnc6nc(C)[nH]c6c5)cc4C3)n1)CC(C)(C)CC2` gave an IC50 of 10 to 50 nM.

For the compound `CCN1CCc2c(ncnc2N2CCOc3ccc(-c4ccc5nc(C)[nH]c5c4)cc3C2)C1`, the IC50 was in the range of 250 to 1000 nM.

`CC1(C)CCc2ncnc(N3CCOc4ccc(-c5cnc(N)c(S(=O)(=O)NCC(O)CO)c5)cc4C3)c2C1` (stereo unspecified) gave an IC50 of 10 to 50 nM.

`Cc1nc(N2CCOc3ccc(-c4ccc(-c5ncc[nH]5)cc4)cc3C2)c2ccccc2n1` had an IC50 of 10 to 50 nM.

On to `Cc1nc(CN(C)C)nc(N2CCOc3ccc(-c4cnc5sc(N)nc5c4)cc3C2)c1C`, for which the IC50 was at most 10 nM.

`CC1(C)CCc2ncnc(N3CCOc4ccc(-c5cnc(N)c(S(=O)(=O)NC[C@@H]6CCCNC6)c5)cc4C3)c2C1`: the IC50 was 50 to 250 nM.

`CNC(=O)Nc1ccc(-c2ccc3c(c2)CN(c2nc(C)nc4cc(OC)ccc24)CCO3)cc1` gave an IC50 of 50 to 250 nM.

`CC1(C)CCc2ncnc(N3CCOc4ccc(-c5cnc(N)c(S(=O)(=O)N6CC(C)(N)C6)c5)cc4C3)c2C1` yielded a concentration for half-maximal inhibition (IC50) of 10 to 50 nM.

Consider `CC1(C)CCc2ncnc(N3CCOc4ccc(-c5cnc(N)c(S(=O)(=O)N6CCNCC6)c5)cc4C3)c2C1`, for which the IC50 lay within 50 to 250 nM.

In the case of `Cc1nc2cc(-c3ccc4c(c3)CN(c3nc(C(C)N)nc5c3CC(C)(C)CC5)CCO4)ccc2[nH]1` (stereo unspecified), the concentration for half-maximal inhibition (IC50) was in the range of 10 to 50 nM.

Regarding `CC1(C)CCc2ncnc(N3CCOc4ccc(-c5cnc(N)c(S(=O)(=O)N6C[C@@H]7C[C@H]6CN7)c5)cc4C3)c2C1`, the IC50 was 10 to 50 nM.

In turn, `COc1cc2c(N3CCOc4ccc(-c5ccc6nc(C)[nH]c6c5)cc4C3)ncnc2c(OC)c1OC` showed an IC50 of 50 to 250 nM.

Compound `Cc1nc(CN(C)C)nc(N2CCOc3ccc(-c4ccc5[nH]c(C(F)F)nc5c4)cc3C2)c1Cc1ccc(F)cc1` yielded an IC50 of at most 10 nM.

With `COc1ccc2c(N3CCOc4ccc(-c5ccc(N)nc5)cc4C3)nc(C)nc2c1`, the half-inhibitory concentration (IC50) was in the range of 50 to 250 nM.

Turning to `CC1(C)C=Cc2ncnc(N3CCOc4ccc(-c5ccc(-c6ncc[nH]6)cc5)cc4C3)c2C1`, the IC50 was 10 to 50 nM.

On to `Cc1nc2ncc(-c3ccc4c(c3)CN(c3nc(CNC5CC5)nc5c3CC(C)(C)CC5)CCO4)cc2[nH]1`, for which the IC50 was in the range of 10 to 50 nM.

For `CCNc1nc2ccc(-c3ccc4c(c3)CN(c3nc(C)nc5ccccc35)CCO4)cc2[nH]1`, the IC50 was 10 to 50 nM.

For `Cc1nc2cc(-c3ccc4c(c3)CN(c3ncnc(C)c3Cc3ccc(F)cc3)CCO4)cnc2[nH]1`, the IC50 was 10 to 50 nM.

In the case of `Cc1nc2ccc(-c3ccc4c(c3)CN(c3ncnc5c(C(F)(F)F)cccc35)CCO4)cc2[nH]1`, the IC50 lay in the range of 250 to 1000 nM.

For the compound `COc1ccc2c(N3CCOc4ccc(-c5ccc6[nH]ncc6c5)cc4C3)nc(C)nc2c1`, the IC50 fell in the range of 250 to 1000 nM.

In turn, `CCNc1nc2ccc(-c3ccc4c(c3)CN(c3cc(Nc5ccccc5)ncn3)CCO4)cc2[nH]1` yielded an IC50 of 50 to 250 nM.

In turn, `COc1ccc2c(N3CCOc4ccc(-c5cnc6[nH]cnc6c5)cc4C3)nc(CN(C)C)nc2c1` registered an IC50 of at most 10 nM.

The compound `CCNc1ncnc(N2CCOc3ccc(-c4cnc5nc(C)[nH]c5c4)cc3C2)c1C` registered an IC50 of 10 to 50 nM.

As to `Cc1nc2c(c(N3CCOc4ccc(-c5cnc6nc(C)[nH]c6c5)cc4C3)n1)CC(C)CC2` (stereo unspecified), the IC50 was 10 to 50 nM.

Turning to `CC1(C)CCc2ncnc(N3CCOc4ccc(-c5ccc6nc(N)[nH]c6c5)cc4C3)c2C1`, the IC50 was 50 to 250 nM.

In the case of `Nc1nc2ncc(-c3ccc4c(c3)CN(c3ncnc5ccc(Cl)cc35)CCO4)cc2[nH]1`, the 50% inhibitory concentration (IC50) was at most 10 nM.

On to `CN(C)C(=O)c1cc(-c2ccc3c(c2)CN(c2ncnc4c2CC(C)(C)CC4)CCO3)cnc1N`, for which the IC50 was in the range of 250 to 1000 nM.

`COc1cc2c(N3CCOc4ccc(-c5cnc6nc(N)[nH]c6c5)cc4C3)ncnc2cc1Br` came in with an IC50 of 10 to 50 nM.

In the case of `Cc1ncc(-c2ccc3c(c2)CN(c2ncnc4c2CCC(C)(C)C4)CCO3)s1`, the 50% inhibitory concentration (IC50) fell in the range of 250 to 1000 nM.

On to `Cc1nc2ccc(-c3ccc4c(c3)CN(c3ncnc5cc(F)c(F)cc35)CCO4)cc2[nH]1`, for which the IC50 was 50 to 250 nM.

Turning to `CCCOc1ccc2ncnc(N3CCOc4ccc(-c5ccc6nc(C)[nH]c6c5)cc4C3)c2c1`, the IC50 fell in the range of 250 to 1000 nM.

The compound `CC[C@H]1CCc2c(ncnc2N2CCOc3ccc(-c4cnc(N)c(S(=O)(=O)N5CCC(C)(N)C5)c4)cc3C2)C1` (stereo partly specified) had an IC50 of 10 to 50 nM.

`CC1(C)CCc2ncnc(N3CCOc4ccc(-c5cnc(N)c(S(=O)(=O)NCC6CCCCN6)c5)cc4C3)c2C1` (stereo unspecified) showed an IC50 of 50 to 250 nM.

`Cc1nc2cc(-c3ccc4c(c3)CN(c3nc(CN5CCCC5)nc(C)c3C(C)C)CCO4)ccc2[nH]1` came in with an IC50 of 10 to 50 nM.

`CC1(C)CCc2ncnc(N3CCOc4ccc(-c5cnc6nccnc6c5)cc4C3)c2C1`: the IC50 was 250 to 1000 nM.

Consider `CC1(C)CCc2ncnc(N3CCOc4ccc(-c5cnc(N)c(S(=O)(=O)NCC6CCNCC6)c5)cc4C3)c2C1`, for which the IC50 was in the range of 10 to 50 nM.

In turn, `CC1=CC(C)(C)Cc2c1ncnc2N1CCOc2ccc(-c3cnc(N)c(S(=O)(=O)N[C@@H]4CCN(C)C4)c3)cc2C1` came in with an IC50 of 50 to 250 nM.

`CC1(C)CCc2nc(CO)nc(N3CCOc4ccc(-c5cnc6sc(N)nc6c5)cc4C3)c2C1`: the IC50 was at most 10 nM.

The compound `Cc1cc(Br)c2ncnc(N3CCOc4ccc(-c5ccc6nc(C)[nH]c6c5)cc4C3)c2c1` gave an IC50 of 50 to 250 nM.

With `Cc1c(Nc2ccccc2)ncnc1N1CCOc2ccc(-c3cnc4nc(N)[nH]c4c3)cc2C1`, the IC50 was at most 10 nM.

The compound `CC1(C)CCc2ncnc(N3CCOc4ccc(-c5cnc(N)c(S(=O)(=O)NCCO)c5)cc4C3)c2C1` registered an IC50 of at most 10 nM.

As to `Nc1nc2ccc(-c3ccc4c(c3)CN(c3nc(-c5ccccc5)nc5ccccc35)CCO4)cc2[nH]1`, the IC50 was in the range of 50 to 250 nM.

Compound `Cc1nc(CN(C)C)nc(N2CCOc3ccc(-c4ccc5[nH]c(CF)nc5c4)cc3C2)c1Cc1ccc(F)cc1` registered an IC50 of at most 10 nM.

As for `Cc1nc2ncc(-c3ccc4c(c3)CN(c3ncnc5c3CC(C)(C)C=C5)CCO4)cc2[nH]1`, the IC50 was in the range of 10 to 50 nM.

The values above are taken from the Kinase Knowledgebase extract (Sharma et al. 2016).
